Measured values taken from ChEMBL document CHEMBL5356964, “Design, synthesis and anti-rheumatoid arthritis activity of target TLR4 inhibitors” (Bioorg Med Chem, 2024).
Activity calls are given as the source filed them. No cut-off for these calls is given here.

Experiments:
[1] = Antiproliferative activity against rat Synovial cell assessed as inhibition of cell growth incubated for 48 hrs by CCK-8 assay; format: functional, cell-based
RAW264.7 [2] = experiment: Antiproliferative activity against LPS-induced- mouse RAW264.7 cells assessed as inhibition of cell growth incubated for 24 hrs by CCK-8 assay; format: functional, cell-based; settings: RAW264.7, 24 h
RAW264.7 [3] = experiment: Antiarthritic activity against LPS-induced mouse RAW264.7 cells assessed as reduction in TNF-alpha level at 1 uM incubated for 24 hrs (Rvb 653.3 +/- 70.1 pg/L); format: functional
RAW264.7 [4] = experiment: Antiarthritic activity against LPS-induced mouse RAW264.7 cells assessed as reduction in IL-6 level at 1 uM incubated for 24 hrs (Rvb 231.1 +/- 24.2 pg/L); format: functional
Toll-like receptor 4 [5] = molecular target: T1, Toll-like receptor 4 (Homo sapiens, UniProt O00206); experiment: Inhibition of TLR4 (unknown origin) using TMB as substrate incubated for 90 mins
RAW264.7 [6] = experiment: Antiarthritic activity against LPS-induced mouse RAW264.7 cells assessed as reduction in IL-1beta level at 1 uM incubated for 24 hrs (Rvb 665.1 +/- 82.1 pg/L); format: functional
RAW264.7 [7] = experiment: Antiarthritic activity against LPS-induced mouse RAW264.7 cells assessed as reduction in TNF-alpha level at 1 uM pretreated with compound for 24 hrs followed by LPS induction and measured after 24 hrs; format: functional, cell-based; settings: time 48.0 hrs
Mus musculus [8] = experiment: Antiarthritic activity against collagen-induced rheumatoid arthritis mouse model assessed as reduction in IL-6 level at 100 mg/kg administered for 15 days by ELISA analysis; format: functional, organism-based; settings: time 15.0 day
RAW264.7 [9] = experiment: Antiarthritic activity against LPS-induced mouse RAW264.7 cells assessed as downregulation of TNF-alpha mRNA expression at 1 uM preincubated with compound for 24 hrs followed by LPS-induction and measured after 24 hrs by RT-PCR analysis; format: functional, cell-based; settings: time 48.0 hrs
RAW264.7 [10] = experiment: Antiarthritic activity against LPS-induced mouse RAW264.7 cells assessed as downregulation of STAT3 expression at 1 uM preincubated with compound for 24 hrs followed by LPS-induction and measured after 24 hrs by Western blot analysis; format: functional, cell-based; settings: time 48.0 hrs
Mus musculus [11] = experiment: Antiarthritic activity against collagen-induced rheumatoid arthritis mouse model assessed as reduction in paw swelling at 100 mg/kg administered for 15 days and measured on day 28; format: functional, organism-based; settings: time 28.0 day
RAW264.7 [12] = experiment: Antiarthritic activity against LPS-induced mouse RAW264.7 cells assessed as downregulation of NF-kappaB mRNA expression at 1 uM preincubated with compound for 24 hrs followed by LPS-induction and measured after 24 hrs by RT-PCR analysis; format: functional, cell-based; settings: time 48.0 hrs
RAW264.7 [13] = experiment: Antiarthritic activity against LPS-induced mouse RAW264.7 cells assessed as downregulation of JAK2 expression at 1 uM preincubated with compound for 24 hrs followed by LPS-induction and measured after 24 hrs by Western blot analysis; format: functional, cell-based; settings: time 48.0 hrs
RAW264.7 [14] = experiment: Antiarthritic activity against LPS-induced mouse RAW264.7 cells assessed as downregulation of TLR4 mRNA expression at 1 uM preincubated with compound for 24 hrs followed by LPS-induction and measured after 24 hrs by RT-PCR analysis; format: functional, cell-based; settings: time 48.0 hrs
RAW264.7 [15] = experiment: Antiarthritic activity against LPS-induced mouse RAW264.7 cells assessed as downregulation of TLR4 expression at 1 uM preincubated with compound for 24 hrs followed by LPS-induction and measured after 24 hrs by immunofluorescence analysis; format: functional, cell-based; settings: time 48.0 hrs
RAW264.7 [16] = experiment: Antiarthritic activity against LPS-induced mouse RAW264.7 cells assessed as reduction in IL-1beta level at 1 uM pretreated with compound for 24 hrs followed by LPS induction and measured after 24 hrs; format: functional, cell-based; settings: time 48.0 hrs
RAW264.7 [17] = experiment: Antiarthritic activity against LPS-induced mouse RAW264.7 cells assessed as downregulation of TNF-alpha expression at 1 uM preincubated with compound for 24 hrs followed by LPS-induction and measured after 24 hrs by immunofluorescence analysis; format: functional, cell-based; settings: time 48.0 hrs
RAW264.7 [18] = experiment: Antiarthritic activity against LPS-induced mouse RAW264.7 cells assessed as downregulation of TNF-alpha expression at 1 uM preincubated with compound for 24 hrs followed by LPS-induction and measured after 24 hrs by Western blot analysis; format: functional, cell-based; settings: time 48.0 hrs
Toll-like receptor 4 [19] = molecular target: T1, Toll-like receptor 4; experiment: Potency index, ratio of methotrexate IC50 to test compound IC50 for inhibition of TLR4 (unknown origin) using TMB as substrate incubated for 90 mins
Mus musculus [20] = experiment: Antiarthritic activity against collagen-induced rheumatoid arthritis mouse model assessed as reduction in clinical score at 100 mg/kg administered for 15 days; format: functional, organism-based; settings: time 15.0 day
RAW264.7 [21] = experiment: Antiproliferative activity against LPS-induced- mouse RAW264.7 cells assessed as decrease in number of cells at 1 uM pretreated with compound for 24 hrs followed by LPS induction and measured after 24 hrs; format: functional, cell-based; settings: time 48.0 hrs
Mus musculus [22] = experiment: Antiarthritic activity against collagen-induced rheumatoid arthritis mouse model assessed as reduction in IL-1beta level at 100 mg/kg administered for 15 days by ELISA analysis; format: functional, organism-based; settings: time 15.0 day
RAW264.7 [23] = experiment: Antiarthritic activity against LPS-induced mouse RAW264.7 cells assessed as downregulation of JAK2 mRNA expression at 1 uM preincubated with compound for 24 hrs followed by LPS-induction and measured after 24 hrs by RT-PCR analysis; format: functional, cell-based; settings: time 48.0 hrs
RAW264.7 [24] = experiment: Antiarthritic activity against LPS-induced mouse RAW264.7 cells assessed as downregulation of STAT3 mRNA expression at 1 uM preincubated with compound for 24 hrs followed by LPS-induction and measured after 24 hrs by RT-PCR analysis; format: functional, cell-based; settings: time 48.0 hrs
RAW264.7 [25] = experiment: Antiproliferative activity against LPS-induced- mouse RAW264.7 cells assessed as cell survival at 1 uM pretreated with compound for 24 hrs followed by LPS induction and measured after 24 hrs; format: functional, cell-based; settings: time 48.0 hrs
RAW264.7 [26] = experiment: Antiarthritic activity against LPS-induced mouse RAW264.7 cells assessed as downregulation of JAK2 expression at 1 uM preincubated with compound for 24 hrs followed by LPS-induction and measured after 24 hrs by immunofluorescence analysis; format: functional, cell-based; settings: time 48.0 hrs
RAW264.7 [27] = experiment: Antiarthritic activity against LPS-induced mouse RAW264.7 cells assessed as downregulation of NF-kappaB expression at 1 uM preincubated with compound for 24 hrs followed by LPS-induction and measured after 24 hrs by Western blot analysis; format: functional, cell-based; settings: time 48.0 hrs
Mus musculus [28] = experiment: Antiarthritic activity against collagen-induced rheumatoid arthritis mouse model assessed as reduction in TNF-alpha level at 100 mg/kg administered for 15 days by ELISA analysis; format: functional, organism-based; settings: time 15.0 day
RAW264.7 [29] = experiment: Antiarthritic activity against LPS-induced mouse RAW264.7 cells assessed as downregulation of STAT3 expression at 1 uM preincubated with compound for 24 hrs followed by LPS-induction and measured after 24 hrs by immunofluorescence analysis; format: functional, cell-based; settings: time 48.0 hrs
RAW264.7 [30] = experiment: Antiarthritic activity against LPS-induced mouse RAW264.7 cells assessed as downregulation of TLR4 expression at 1 uM preincubated with compound for 24 hrs followed by LPS-induction and measured after 24 hrs by Western blot analysis; format: functional, cell-based; settings: time 48.0 hrs
RAW264.7 [31] = experiment: Antiarthritic activity against LPS-induced mouse RAW264.7 cells assessed as reduction in IL-6 level at 1 uM pretreated with compound for 24 hrs followed by LPS induction and measured after 24 hrs; format: functional, cell-based; settings: time 48.0 hrs
RAW264.7 [32] = experiment: Antiarthritic activity against LPS-induced mouse RAW264.7 cells assessed as downregulation of NF-kappaB expression at 1 uM preincubated with compound for 24 hrs followed by LPS-induction and measured after 24 hrs by immunofluorescence analysis; format: functional, cell-based; settings: time 48.0 hrs

T1 sequence (O00206 whole entry): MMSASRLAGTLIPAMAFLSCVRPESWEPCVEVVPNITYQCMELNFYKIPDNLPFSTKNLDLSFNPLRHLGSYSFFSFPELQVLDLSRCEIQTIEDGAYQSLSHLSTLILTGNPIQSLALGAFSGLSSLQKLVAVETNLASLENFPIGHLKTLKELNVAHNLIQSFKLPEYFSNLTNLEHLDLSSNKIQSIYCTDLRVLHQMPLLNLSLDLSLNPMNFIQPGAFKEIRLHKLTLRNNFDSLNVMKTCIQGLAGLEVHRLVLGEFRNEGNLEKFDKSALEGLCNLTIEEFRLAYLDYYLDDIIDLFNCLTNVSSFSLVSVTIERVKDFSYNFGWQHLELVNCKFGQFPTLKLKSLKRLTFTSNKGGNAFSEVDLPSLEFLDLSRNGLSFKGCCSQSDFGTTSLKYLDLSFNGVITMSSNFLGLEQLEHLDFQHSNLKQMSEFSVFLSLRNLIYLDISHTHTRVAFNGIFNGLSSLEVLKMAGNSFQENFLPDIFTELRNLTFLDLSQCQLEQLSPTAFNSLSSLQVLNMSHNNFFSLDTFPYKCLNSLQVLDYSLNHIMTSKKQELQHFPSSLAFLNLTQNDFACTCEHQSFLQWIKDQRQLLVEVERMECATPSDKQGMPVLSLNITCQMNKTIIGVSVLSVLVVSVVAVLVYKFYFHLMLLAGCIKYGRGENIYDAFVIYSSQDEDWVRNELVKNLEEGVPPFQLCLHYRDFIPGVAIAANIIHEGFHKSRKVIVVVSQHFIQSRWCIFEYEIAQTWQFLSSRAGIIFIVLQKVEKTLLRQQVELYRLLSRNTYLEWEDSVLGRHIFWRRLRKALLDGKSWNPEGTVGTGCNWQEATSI

In the case of `CCCCCC1CCC(=O)C(C(=O)CC(C)=O)C1` (configuration not stated), the IC50 [1] is reported as 5080 nM and the IC50 (RAW264.7 [2]) is reported as 2450 nM.
With `CCC(C)(C)C1CCC(=O)C(C(=O)CC(C)=O)C1` (configuration not stated) the IC50 [1] was 10300 nM and the IC50 (RAW264.7 [2]) was 3900 nM.
For `CC(=O)CC(=O)C1CC(NC(C)=O)CCC1=O` (configuration not stated), the Activity (RAW264.7 [3]) was 365.2 pg/L, the Activity (RAW264.7 [4]) was 158.9 pg/L and the IC50 [1] was 2610 nM. For the same compound, the IC50 (RAW264.7 [2]) was 1330 nM, the IC50 (Toll-like receptor 4 [5]) was 1210 nM and the Activity (RAW264.7 [6]) was 407.2 pg/L.
For `CCCCC1CCC(=O)C(C(=O)CC(C)=O)C1` (configuration not stated), the Activity (RAW264.7 [3]) was 401.6 pg/L, the Activity (RAW264.7 [4]) was 187.4 pg/L and the IC50 [1] was 2720 nM. For the same compound, the IC50 (RAW264.7 [2]) was 1560 nM, the IC50 (Toll-like receptor 4 [5]) was 1860 nM and the Activity (RAW264.7 [6]) was 481.6 pg/L.
With `CC(=O)CC(=O)C1CC(O)CCC1=O` (configuration not stated) the Activity (RAW264.7 [7]) was “Active”, the Activity (RAW264.7 [3]) was 151.5 pg/L and the Activity (Mus musculus [8]) was “Active”. The Activity (RAW264.7 [9]) was “Active”, the Activity (RAW264.7 [4]) was 90.2 pg/L and the Activity (RAW264.7 [10]) was “Active”. For the same compound, the Activity (Mus musculus [11]) was “Active”, the Activity (RAW264.7 [12]) was “Active” and the IC50 [1] was 1210 nM. For the same compound, the Activity (RAW264.7 [13]) was “Active”, the Activity (RAW264.7 [14]) was “Active” and the Activity (RAW264.7 [15]) was “Active”. The Activity (RAW264.7 [16]) was “Active”, the Activity (RAW264.7 [17]) was “Active” and the Activity (RAW264.7 [18]) was “Active”. For the same compound, the IC50 (RAW264.7 [2]) was 730 nM, the Ratio IC50 (Toll-like receptor 4 [19]) was 2.4 and the IC50 (Toll-like receptor 4 [5]) was 430 nM. The Activity (Mus musculus [20]) was “Active”, the Activity (RAW264.7 [21]) was “Active” and the Activity (Mus musculus [22]) was “Active”. For the same compound, the Activity (RAW264.7 [23]) was “Active”, the Activity (RAW264.7 [24]) was “Active” and the Activity (RAW264.7 [25]) was “Active”. The Activity (RAW264.7 [26]) was “Active”, the Activity (RAW264.7 [6]) was 258.3 pg/L and the Activity (RAW264.7 [27]) was “Active”. For the same compound, the Activity (Mus musculus [28]) was “Active”, the Activity (RAW264.7 [29]) was “Active” and the Activity (RAW264.7 [30]) was “Active”. For the same compound, the Activity (RAW264.7 [31]) was “Active” and the Activity (RAW264.7 [32]) was “Active”.
Work on `CC(=O)CC(=O)C1CC(C2CCC3(CC2)OCCO3)CCC1=O` (configuration not stated) yielded an IC50 [1] of 5220 nM and an IC50 (RAW264.7 [2]) of 2510 nM.
In the case of `CC(=O)CC(=O)C1CC(=O)CCC1=O` (configuration not stated), the IC50 [1] is reported as 6510 nM and the IC50 (RAW264.7 [2]) is reported as 3630 nM.
`CC(=O)CC(=O)C1CC(N2C(=O)c3ccccc3C2=O)CCC1=O` (configuration not stated) gave an IC50 [1] of 5960 nM and an IC50 (RAW264.7 [2]) of 2660 nM.
Work on `CC(=O)CC(=O)C1CC(C(=O)O)CCC1=O` (configuration not stated) yielded an IC50 [1] of 5310 nM and an IC50 (RAW264.7 [2]) of 2710 nM.
Compound `CC(=O)CC(=O)C1CC(C2=CCCCC2)CCC1=O` (configuration not stated) has an IC50 [1] of 5430 nM and an IC50 (RAW264.7 [2]) of 2830 nM.
In the case of `CCC1CCC(=O)C(C(=O)CC(C)=O)C1` (configuration not stated), the IC50 [1] is reported as 5310 nM and the IC50 (RAW264.7 [2]) is reported as 2680 nM.
`CC(=O)CC(=O)C1CCCCC1=O` (configuration not stated) gave an IC50 [1] of 4450 nM and an IC50 (RAW264.7 [2]) of 3110 nM.
